Results from PMC12064818, “A general assay platform to study protein pharmacology using ligand-dependent structural dynamics” (Nature Communications, 2025).

Target: T1, FLuc-C-HiBiT (Photinus pyralis, UniProt P08659)
T1 construct: firefly luciferase with C-terminal HiBiT tag, E. coli expressed
Test: biochemical
Conditions: enzyme activity, 10 uM ATP; read-out: IC50 or SDR50 (mM) / FLuc E

T1 sequence (P08659 whole entry, looked up): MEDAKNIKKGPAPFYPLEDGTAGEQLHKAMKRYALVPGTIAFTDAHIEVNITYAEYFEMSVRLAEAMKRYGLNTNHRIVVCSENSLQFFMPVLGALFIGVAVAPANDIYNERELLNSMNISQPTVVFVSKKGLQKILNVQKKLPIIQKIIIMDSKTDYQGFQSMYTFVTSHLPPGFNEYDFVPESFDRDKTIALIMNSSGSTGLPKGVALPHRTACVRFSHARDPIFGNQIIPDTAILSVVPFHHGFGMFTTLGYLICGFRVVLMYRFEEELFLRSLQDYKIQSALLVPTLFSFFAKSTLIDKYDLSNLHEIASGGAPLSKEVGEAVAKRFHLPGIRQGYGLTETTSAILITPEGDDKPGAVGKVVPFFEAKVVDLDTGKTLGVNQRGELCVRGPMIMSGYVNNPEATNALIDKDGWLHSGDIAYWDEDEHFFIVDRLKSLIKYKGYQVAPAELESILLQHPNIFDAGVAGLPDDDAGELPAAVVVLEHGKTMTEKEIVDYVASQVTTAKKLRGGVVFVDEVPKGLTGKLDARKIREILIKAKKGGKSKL

IC50 [µM]	SMILES
2.48	Cc1cc(NC(=O)c2ccccc2F)ccc1-c1nc2ccccc2s1 [NCGC00137834-01]
3.51	COc1ccc(NC(=O)Nc2ccc(C)n(CC(=O)NCC(C)C)c2=O)cc1 [NCGC00430836-01]
20.2	COCCN1CCNc2cc(-c3cccc(OC)c3)ncc2C1 [NCGC00411013-01]
11.1	O=C(O)c1ccc(-c2nnc3ccc(NC(=O)C4CCC4)cn23)cc1 [NCGC00432681-01]
18	Cc1ccc(-n2nc(C)c([C@@H]3C=C[C@@H](NC(=O)NCc4ccccc4)C3)c2C)cc1Cl [NCGC00399961-01]
12.4	O=C(c1ccncc1)N1CCC(Oc2ccc(-c3noc(-c4ccccc4)n3)cc2)C1 (stereo not shown) [NCGC00440993-01]
11.1	Cc1ccc(NC(=O)c2ccc(CN3C(=O)NC4(CCOCC4)C3=O)cc2)cc1C [NCGC00454605-01]
> 30	CN(C1CCc2ccccc2C1)[S+](=O)([O-])c1cccs1 (stereo not shown) [NCGC00480121-01]
1.11	COc1ccc(C)cc1NC(=O)Nc1cccc(-c2ccc(N3CCCCC3)nn2)c1 [NCGC00427638-01]
> 30	COc1ccc(Nc2cc(C(=O)NC3CCC(C)CC3)c3ccccc3n2)cc1OC (stereo not shown) [NCGC00108132-01]
11.1	COc1cccc(CN2CCc3nc(Nc4ccc5c(c4)OCCO5)ncc3C2)c1 [NCGC00131180-01]
> 30	COc1cccc(CC(=O)Nc2ccc(-c3nc4ccccc4s3)cc2Cl)c1 [NCGC00137806-01]
9.89	COc1ccc(-c2cc(N3CCCC(NC(=O)c4cc(OC)cc(OC)c4)C3)[nH]n2)cc1 (stereo not shown) [NCGC00437618-01]
> 30	c1ccc2sc(-c3cc4c(c(OC5CCOC5)c3)OCCN(Cc3cccn3-c3nccs3)C4)nc2c1 (stereo not shown) [NCGC00240062-01]
9.89	CCOc1ccc(-c2cc(CCCC(=O)NCCc3ccc(OC)c(OC)c3)no2)cc1 [NCGC00110832-01]
17.6	O=C1CC(c2ccccc2)N(C(=O)CNC(=O)Nc2ccc3c(c2)OCCO3)CCCCCN1 (stereo not shown) [NCGC00465553-01]
> 30	COc1ccc(-c2nc3ccccc3s2)cc1NC(=O)c1cccc(F)c1 [NCGC00141116-01]
0.0442	Cc1ccc(/C=C/c2nc3ccccc3[nH]2)cc1 [NCGC00139422-01]
18	COc1cccc(CN2CCNc3cc(Nc4ccccc4)ncc3C2)c1 [NCGC00411172-01]
3.13	O=C(Nc1cc(F)cc(F)c1)Nc1cccc(-c2ccc(N3CCOCC3)nn2)c1 [NCGC00427624-01]
> 30	Cc1ccc(-n2nc(C)c([C@@H]3C=C[C@@H](NC(=O)COCC(=O)O)C3)c2C)cc1Cl [NCGC00401616-01]
22.7	Oc1cccc(-c2cc3c(cn2)CN(Cc2cccnc2)CCN3)c1 [NCGC00411023-01]
12.4	CCN1CCN(c2csc3ccc(Cl)cc3c2=O)CC1 [NCGC00132328-01]
> 30	CCc1cccc(NCc2ccccc2-c2nnc(-c3ccccc3Cl)o2)c1 [NCGC00107400-01]
> 30	O=C(c1n[nH]cc1Cl)N1CCOC(Cc2cccc(C(F)(F)F)c2)C1 (stereo not shown) [NCGC00431816-01]
16.1	COc1ccc(-c2noc([C@@H]3C[C@@H](O)CN3Cc3cc4ccccc4o3)n2)cc1 [NCGC00400688-01]
11.1	Cc1ccc(C2Cn3nnc(C(=O)N4CCC(C(=O)NCc5ccccn5)CC4)c3CO2)cc1 (stereo not shown) [NCGC00449551-01]

IC50 [µM]	SMILES
7.85	Cc1ncc(C(=O)NCc2ccc3[nH]c(-c4ccccc4F)c(C)c3c2)c(C)n1 [NCGC00435925-01]
12.4	CCOCC(=O)N1c2ccccc2CC1c1noc(C(C)C)n1 (stereo not shown) [NCGC00471496-01]
6.24	Cc1cccc(OCC(=O)Nc2cccc(-c3nc4ccccc4s3)c2)c1 [NCGC00099366-01]
1.01	CC(=O)Nc1cccc(-c2ccc(COc3ccc4c(cnn4CCC(=O)O)c3)cc2)c1 [NCGC00418146-01]
18	Cn1cc(CN2CCc3nc(C(=O)Nc4ccccc4)oc3CC2)cn1 [NCGC00413305-01]
0.881	CC(=O)c1ccc(NC(=O)CSc2nnc(NC(=O)Nc3ccccc3)s2)cc1 [NCGC00136900-01]
9.89	Cc1ccc2oc(C(=O)Nc3cccc(-c4nc5ccccc5s4)c3)c(C)c2c1 [NCGC00119185-01]
> 30	CCc1noc(-c2nc(-c3ccccc3C)no2)n1 [NCGC00450081-01]
6.24	CC1CCN(c2ncnc3c2cnn3-c2ccccc2)CC1 [NCGC00081403-02]
8.81	O=C(Nc1cccc(-c2ccc(N3CCCC3)nn2)c1)c1c(F)cccc1F [NCGC00427548-01]
0.881	c1ccc(-n2ncc3c(N4CCCCC4)ncnc32)cc1 [NCGC00081373-03]
2.48	Cc1cccc(C(=O)Nc2nc3c(s2)CCCC3)c1 [NCGC00118410-01]
3.13	CNC(=O)CCn1ncc2cc(OCc3ccccc3-c3cccc(NC(C)=O)c3)ccc21 [NCGC00418019-01]
5.68	CN(c1ccccc1)c1ccc2ncn(C3CC3)c(=O)c2n1 [NCGC00414800-01]
9.89	CCN1c2cc(C(=O)Nc3ccc4c(c3)OCCO4)ccc2C(=O)N2CCCCCC21 (stereo not shown) [NCGC00452264-01]
20.2	OC(c1nc(Nc2ccc(Oc3ccccc3)cc2)n[nH]1)C1CC1 (stereo not shown) [NCGC00411906-01]
3.13	CCOC(=O)N1CCc2c(sc(NCc3cccs3)c2C(=O)Nc2ccc(OC)cc2OC)C1 [NCGC00140799-01]
0.989	O=C(Nc1cccc(F)c1)Nc1cccc(-c2ccc(N3CCCCC3)nn2)c1 [NCGC00427644-01]
15.7	CCc1noc(-c2nc(-c3ccccc3F)no2)n1 [NCGC00450040-01]
14	O=C(COc1ccccc1)Nc1nnc([S+](=O)([O-])Nc2ccccc2)s1 [NCGC00120845-01]
> 30	CC1=C[C@@H](CNC(=O)c2ccncc2)[C@H](C(C)C)C[C@H]1CC(=O)N1CCOCC1 [NCGC00394503-01]
3.13	CCOc1ccc(-c2cc(CCCC(=O)NCCc3ccc(SC)cc3)no2)cc1 [NCGC00110854-01]
11.1	Cc1ccc(NC(=O)N2CCC(CCNC(=O)c3ccc(F)cc3)CC2)cc1F [NCGC00425047-01]
> 30	COc1ccc(C(=O)Nc2ccccc2-c2nc3ccccc3s2)cc1OC [NCGC00102625-01]
0.453	C[C@@H]1C(=O)O[C@H]2[C@H]1CC[C@@]1(C)Cc3sc(Nc4cccnc4)nc3[C@@H](C)[C@H]21 [NCGC00421621-01]
12.4	O=C(CSc1nccn1Cc1ccco1)Nc1ccc(OC(F)(F)F)cc1 [NCGC00136029-01]
7.85	COc1ccc(-c2cc(N3CCCC(NC(=O)c4cccc(OC)c4)C3)[nH]n2)cc1 (stereo not shown) [NCGC00437636-01]

IC50 [µM]	SMILES
20.2	O=C(Nc1cccnc1)c1nc2c(o1)CCN(Cc1cccc(O)c1)CC2 [NCGC00413425-01]
11.1	COc1ccc(C(=O)NC2CCCN(c3cc(-c4ccc(F)cc4)n[nH]3)C2)cc1OC (stereo not shown) [NCGC00437488-01]
0.007	O=C(O)c1cccc(-c2noc(-c3cccc([N+](=O)[O-])c3)n2)c1 [NCGC00253775-01]
11.1	COc1ccc(NC(=O)Nc2nnc(C)s2)cc1 [NCGC00106652-01]
14.3	COc1ccc(-c2cc3c(cn2)CN(Cc2cccnc2)CCN3)cc1F [NCGC00411039-01]
12.4	COCCNc1oc(-c2ccc(OC)cc2)nc1C#N [NCGC00101301-01]
> 30	COc1ccc2c(C)c(-c3nc(C4CCOC4)no3)oc2c1 (stereo not shown) [NCGC00443479-01]
14.3	COc1ccc(CN2C[C@H](O)C[C@H]2c2nc(-c3ccc(OC)cc3)no2)cc1 [NCGC00400669-01]
0.785	CC1CCCN(c2ncnc3c2cnn3-c2cccc(Cl)c2)C1 (stereo not shown) [NCGC00523592-01]
12.4	COc1ccc(-c2nc3ccccc3o2)cc1NC(=O)c1cccnc1 [NCGC00103240-01]
3.13	COc1ccccc1NC(=O)Nc1cccc(-c2ccc(N3CCOCC3)nn2)c1 [NCGC00427580-01]
9.89	COc1ccc(C(=O)COC(=O)CCCC(=O)Nc2ccc(C(C)=O)cc2)cc1 [NCGC00100762-01]
> 30	O=C(COC(=O)c1cc(-c2cccs2)nc2ccccc12)c1ccc(Br)cc1 [NCGC00100768-01]
> 30	COc1ccc(-c2nc3ccccc3s2)cc1NC(=O)COc1ccccc1C [NCGC00103036-01]
3.51	Cc1ccc2nc(-c3ccc(NC(=O)COc4ccc(Br)cc4Br)cc3)sc2c1 [NCGC00098202-02]
> 30	C=CCN(C)C(=O)[C@@H](C)C1CC[C@@]2(C)Cc3sc(NC(=O)CN(C)C)nc3[C@@H](C)[C@@H]2[C@H]1O (stereo partly shown) [NCGC00421253-01]
0.556	CC1CCCN(C(=O)c2cc3ccc4cccnc4c3[nH]2)C1 (stereo not shown) [NCGC00126906-01]
14.3	Cn1cc(-c2cnc(Nc3ccc(N4CCOCC4)cc3)c3c2CCO3)cn1 [NCGC00412818-01]
> 30	c1cncc(Nc2cc3c(cn2)CN(Cc2c[nH]cn2)CCN3)c1 [NCGC00411246-03]
17.6	Cc1ccc(-c2nc(C)c(CCNC(=O)c3cccs3)s2)cc1 [NCGC00135815-01]
12.4	c1ccc(COc2ccc(CN3CCSCC3)cc2)nc1 [NCGC00446150-01]
> 30	OCc1cn(CC2CCN(c3ncnc4[nH]cnc34)CC2)nn1 [NCGC00425096-01]
6.24	Cc1ncccc1C(=O)N1CC(Oc2ccc(-c3nc(-c4ccccc4)no3)cc2)C1 [NCGC00441179-01]
> 30	COc1ccc(CC(=O)Nc2ccc(-c3nc4ccccc4s3)c(C)c2)cc1 [NCGC00137836-01]
11.1	Cc1ccc(C2Cn3nnc(C(=O)N4CCC(C(=O)NCCc5ccccc5)CC4)c3CO2)cc1 (stereo not shown) [NCGC00449535-01]
12.4	O=C(Cc1cccc(F)c1)N1CC(Oc2ccc(-c3nc(-c4ccccc4)no3)cc2)C1 [NCGC00441157-01]

SMILES	IC50 [µM]
CN1CCNc2cc(Nc3ccc(F)c(Cl)c3)ncc2C1 [NCGC00411263-01]	12.8
O=C(O)c1cccc(-c2noc(-c3ccccc3F)n2)c1 [NCGC00168759-10]	0.00624
O=C(O)c1cccc(-c2noc(-c3ccccc3F)n2)c1 [PTC124]	0.00154
CCCN1CCNc2cc(Nc3ccccc3)ncc2C1 [NCGC00411254-01]	25.4
CN1CCNc2cc(Nc3ccc(F)cc3)ncc2C1 [NCGC00411261-01]	20.2
